Reference: paper PMC10376691, “Inhibition of Acetylcholinesterase and Amyloid-β Aggregation by Piceatannol and Analogs: Assessing In Vitro and In Vivo Impact on a Murine Model of Scopolamine-Induced Memory Impairment” (Antioxidants, 2023)
“Also recorded” adds a separate entry of the source. Like-named read-outs stand apart in the source and are kept apart here.

Experiments:
[1] = oral administration to rats; cited from earlier work
SH-SY5Y cells [2] = test: Cytotoxicity on SH-SY5Y cells (MTT); format: cell-based; settings: 1, 2, 5 and 10 μM, MTT (Figure S1)
Procedure: The human SH-SY5Y neuroblastoma cell lines (CRL-2266, Lot No. 58979771) were purchased from American Type Culture Collection (Manassas, VA, USA) and used as models to investigate PIC and its analogs for neuroprotective activities against Aβ-induced cell deaths and the stimulation of neurite outgrowths. The SH-SY5Y cells were grown in DMEM/F-12 medium supplemented with 10% FBS at 37 °C under a humidified atmosphere and 5% CO2 [41]. […]. The SH-SY5Y cells (10,000 cells/well) were seeded and cultured in a DMEM/F-12 medium containing 10% FBS for 24 h at 37 °C under a humidified atmosphere and 5% CO2. […] The medium was then removed, and 40 μg/mL Aβ peptide (25–35) (dissolved in PBS) or an equal aliquot of PBS was added to the medium for another 24 h culture. The MTT was used to evaluate cell viability, and the absorbance at 570 nm was determined. The DMSO used instead of the sample solution was blank (recognized as 100%), and each treatment was expressed as relative cell viability (%). […] To measure cell viability and quantify the neurite outgrowths of the treated SH-SY5Y in a 96-well plate, the neurite outgrowth staining kit (a two-color fluorescence assay kit) was used, following a previous report or the protocol in the manufacturer’s manual (publication number: MAN0007224), which included a cell membrane-stained fluorescent dye (orange-red fluorescence), a cell viability indicator (green fluorescence), and a reagent for background masking. The fluorescence ratios of Ex555nm/Em565nm and Ex495nm/Em515nm were determined for the neurite outgrowths and the cell viabilities, respectively. […]
The following supporting information can be downloaded at: https://www.mdpi.com/article/10.3390/antiox12071362/s1. […] The MTT was used to evaluate cell viability, and the absorbance at 570 nm was determined. The DMSO used instead of the sample solution was blank (recognized as 100%), and each treatment was expressed as relative cell viability (%). […]

[3] = tested on: mild to moderate AD patients; settings: human trial, 52 weeks, cited from earlier work
[4] = rats, cited from earlier work
SH-SY5Y cells [5] = test: Neuroprotection against Aβ peptide (25–35)-induced cell deaths (MTT); format: cell-based, human; settings: pre-treatment 1, 2 and 10 μM for 24 h, then 40 μg/mL Aβ (25–35) 24 h; vs control p < 0.05
Procedure: The human SH-SY5Y neuroblastoma cell lines (CRL-2266, Lot No. 58979771) were purchased from American Type Culture Collection (Manassas, VA, USA) and used as models to investigate PIC and its analogs for neuroprotective activities against Aβ-induced cell deaths and the stimulation of neurite outgrowths. The SH-SY5Y cells were grown in DMEM/F-12 medium supplemented with 10% FBS at 37 °C under a humidified atmosphere and 5% CO2 [41]. […]. The SH-SY5Y cells (10,000 cells/well) were seeded and cultured in a DMEM/F-12 medium containing 10% FBS for 24 h at 37 °C under a humidified atmosphere and 5% CO2. […] The medium was then removed, and 40 μg/mL Aβ peptide (25–35) (dissolved in PBS) or an equal aliquot of PBS was added to the medium for another 24 h culture. The MTT was used to evaluate cell viability, and the absorbance at 570 nm was determined. The DMSO used instead of the sample solution was blank (recognized as 100%), and each treatment was expressed as relative cell viability (%). To study the stimulation of neurite outgrowth, the SH-SY5Y cells (5000 cells/well) were seeded on a 96-well plate pre-coated with poly-L-lysine and then cultured in the DMEM/F-12 medium containing 10% FBS overnight at 37 °C under a humidified atmosphere and 5% CO2. After being removed from the culture medium, each PIC, GNT, RHA, and isoRHA (at a final concentration of 10 μM in the 0.1%DMSO) or 0.1% DMSO (the control) was added to the DMEM/F-12 medium containing 10% FBS and refreshed every three days. On day 3 and day 6, each of the culture plates was photographed using an inverted microscope (ECLIPSE TS100, Nikon Instruments Inc., Tokyo, Japan). The culture medium was removed and washed with PBS, and the cultured cells in each well were fixed with 4% paraformaldehyde. To measure cell viability and quantify the neurite outgrowths of the treated SH-SY5Y in a 96-well plate, the neurite outgrowth staining kit (a two-color fluorescence assay kit) was used, following a previous report or the protocol in the manufacturer’s manual (publication number: MAN0007224), which included a cell membrane-stained fluorescent dye (orange-red fluorescence), a cell viability indicator (green fluorescence), and a reagent for background masking. The fluorescence ratios of Ex555nm/Em565nm and Ex495nm/Em515nm were determined for the neurite outgrowths and the cell viabilities, respectively. The value for the control was recognized as 100%, and each treatment was expressed relative to the control.

[6] = DPPH radical scavenging activity; settings: 120 μM DPPH in methanol, 37 °C, 20 min
Procedure: DPPH radical scavenging activity was assayed following a previous report, with some modifications. […] DMSO was used instead of a sample solution in the blank group. […] The scavenging activity of the DPPH radical (%) was calculated with the following equation: (△A515blank − △A515sample) ÷ △A515blank × 100%. The IC50 of the DPPH radical scavenging activity of PIC and its analogs or that of Trolox was calculated from each linear equation by three test concentrations and their radical scavenging activities.

[7] = tested on: scopolamine-induced amnesiac ICR mice; test: Passive avoidance test in scopolamine-induced amnesiac ICR mice; format: in vivo, mouse; settings: PIC 50 mg/kg oral once a day, donepezil 5 mg/kg oral, scopolamine 1 mg/kg i.p.
Excerpt: The scopolamine-induced cognitive dysfunctions of amnesiac ICR mice were used to evaluate the effects of PIC pre-treatments on the improvement of learning and memory functions, following previous reports. The animal experimental protocols were reviewed and approved by the Institutional Animal Care and Use Committee, Taipei Medical University (No. LAC-2021-0488). After a two-week acclimation, the mice were randomly divided into four groups (N = 5 for each group). In the first stage, the mice in the PIC group were orally pre-treated with PIC (50 mg/kg) using a feeding tube, once a day from day 1 to day 7; the mice in the blank, control, and donepezil groups were treated with the same volume of distilled water from day 1 to day 7. In the second stage, on day 8 and day 9, the mice in the PIC group and the donepezil group were orally treated once with PIC (50 mg/kg) and donepezil (positive control, 5 mg/kg), respectively, using a feeding tube; the mice in the blank and the control groups were treated with the same volume of distilled water. After 30 min, each mouse was injected intraperitoneally with scopolamine (1 mg/kg, dissolved in PBS), and the mice in the blank group were each injected with an equal volume of PBS instead of the scopolamine solution. Again, 30 min after the scopolamine or PBS injection, a learning and memory evaluation was performed on each mouse with the use of a 2-day passive avoidance test. All the mice were sacrificed at the end of the animal experiments, and the brain tissues of the mice in each group were isolated, weighted, and stored at −80 °C for further use.
A 2-day passive avoidance test, which included an acquisition trial on the first day and a retention trial on the second day, was used to evaluate the learning and memory functions of the scopolamine-induced cognitive dysfunctions of amnesiac ICR mice after PIC and donepezil treatments, following previous reports. A shuttle chamber (AccuScan Instruments Inc., Columbus, OH, USA) with a light box and a dark box separated by a sliding door was used. On day 8, after acclimation around the shuttle chamber for 30 min, each scopolamine-injected or PBS-injected mouse was placed in the light box for the acquisition trial. Once the mouse entered the dark box, the step-through latency (s) was recorded, and the sliding door was closed at the same time. Immediately after, the mouse was administered an electric foot shock (0.3 mA for 3 s) via the wired metal floor and then sent back to the cage. […] The step-through latency (period of time that each mouse stayed in the light box) was recorded again. […] The protein content of the whole brain extracts from the mice was quantified using the BCA protein kit, with bovine serum albumin as the standard protein. […]

recombinant human AChE = molecular target: T1, recombinant human AChE (Homo sapiens, UniProt P22303); test: AChE inhibitory activity in vitro (acetylthiocholine/DTNB); format: biochemical
T1 construct: purchased R&D Systems Inc. (Minneapolis, MN, USA)
Procedure: Commercially synthesized acetylthiocholine iodide was hydrolyzed using AChE to release thiocholine, which was coupled with DTNB to generate the yellowish 5-thio-2-nitrobenzoate for in vitro AChE activity assays. For the AChE inhibitory activity assay, each analog was dissolved in the DMSO, and final concentrations of 100, 200, and 500 μM were used for comparisons. An equal volume of DMSO instead of the sample solution was used in the blank group and expressed as 100% AChE activity. […] AChE inhibition (%) was calculated as follows: [(A405blank − A405sample)/(A405blank)] × 100%.

Aβ peptide (1–42) = molecular target: T2, Aβ peptide (1–42) (Homo sapiens, UniProt P05067); test: biochemical
T2 construct: The Aβ peptide (1–42) was synthesized and purchased from Kelowna International Scientific Inc; purchased Kelowna International Scientific Inc. (New Taipei, Taiwan); host or cells: chemical synthesis
Procedure: To prepare the 10 μM Aβ peptide working solution, commercial Aβ peptide was first weighted and dissolved in HFIP to 1 mM. Next, the solvent was evaporated in a hood and then re-dissolved using 100 μL of 60 mM NaOH. It was then diluted to 10 μM working solutions with 50 mM phosphate buffer (pH 7.4, containing 150 mM sodium chloride and 1 mM EDTA), following previous reports. […] DMSO instead of the sample solution was used as the control. The 50 mM phosphate buffer was used instead of the Aβ working solution as the sample blank. […] The IC50 of the inhibition against the Aβ aggregation of PIC and its analogs was calculated from each linear equation using three test concentrations and their inhibition capacities.

SH-SY5Y cells [8] = test: Neurite outgrowth and cell viability, two-color fluorescence assay kit; format: cell-based; settings: 10 μM; for stimulation of neurite outgrowths: 3-day or 6-day treatment, orange-red fluorescence, vs control
Procedure: (§1) The SH-SY5Y cells were grown in DMEM/F-12 medium supplemented with 10% FBS at 37 °C under a humidified atmosphere and 5% CO2 [41]. […] The MTT was used to evaluate cell viability, and the absorbance at 570 nm was determined. The DMSO used instead of the sample solution was blank (recognized as 100%), and each treatment was expressed as relative cell viability (%). To study the stimulation of neurite outgrowth, the SH-SY5Y cells (5000 cells/well) were seeded on a 96-well plate pre-coated with poly-L-lysine and then cultured in the DMEM/F-12 medium containing 10% FBS overnight at 37 °C under a humidified atmosphere and 5% CO2. After being removed from the culture medium, each PIC, GNT, RHA, and isoRHA (at a final concentration of 10 μM in the 0.1%DMSO) or 0.1% DMSO (the control) was added to the DMEM/F-12 medium containing 10% FBS and refreshed every three days. On day 3 and day 6, each of the culture plates was photographed using an inverted microscope (ECLIPSE TS100, Nikon Instruments Inc., Tokyo, Japan). The culture medium was removed and washed with PBS, and the cultured cells in each well were fixed with 4% paraformaldehyde. To measure cell viability and quantify the neurite outgrowths of the treated SH-SY5Y in a 96-well plate, the neurite outgrowth staining kit (a two-color fluorescence assay kit) was used, following a previous report or the protocol in the manufacturer’s manual (publication number: MAN0007224), which included a cell membrane-stained fluorescent dye (orange-red fluorescence), a cell viability indicator (green fluorescence), and a reagent for background masking. […] The value for the control was recognized as 100%, and each treatment was expressed relative to the control.

[9] = as above; format: cell-based; settings: human, 3-day or 6-day treatment, green fluorescence, read-out: cell viability relative to the control
Procedure: as §1

[10] = 500 mg once daily up to 1000 mg twice daily

T2 sequence (P05067 672-713): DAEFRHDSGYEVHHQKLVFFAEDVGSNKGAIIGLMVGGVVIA
T1 sequence (P22303 32-614): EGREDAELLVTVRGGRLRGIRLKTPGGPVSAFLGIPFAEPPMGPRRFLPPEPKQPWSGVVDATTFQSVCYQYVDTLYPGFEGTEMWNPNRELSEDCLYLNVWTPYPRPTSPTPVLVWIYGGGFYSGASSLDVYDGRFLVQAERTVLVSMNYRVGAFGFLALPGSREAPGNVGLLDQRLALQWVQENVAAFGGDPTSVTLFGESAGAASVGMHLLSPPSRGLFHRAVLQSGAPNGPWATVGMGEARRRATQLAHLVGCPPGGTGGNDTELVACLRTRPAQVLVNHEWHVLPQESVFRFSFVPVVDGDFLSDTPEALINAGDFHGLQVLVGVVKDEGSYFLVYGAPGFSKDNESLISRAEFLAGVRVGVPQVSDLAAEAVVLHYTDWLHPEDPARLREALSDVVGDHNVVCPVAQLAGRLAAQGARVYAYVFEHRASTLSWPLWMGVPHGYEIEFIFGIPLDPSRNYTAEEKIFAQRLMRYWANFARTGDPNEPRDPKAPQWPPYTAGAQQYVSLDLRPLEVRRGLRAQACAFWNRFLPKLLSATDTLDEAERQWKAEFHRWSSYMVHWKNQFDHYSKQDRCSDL

Compound | cytotoxicity on SH-SY5Y cells (SH-SY5Y cells [2]) | neuroprotection: cell viability against Aβ peptide (25–35)-induced cell deaths (SH-SY5Y cells [5]) | IC50 [6] | IC50 (recombinant human AChE) | IC50 (Aβ peptide (1–42)) | stimulation of neurite outgrowths (SH-SY5Y cells [8]) | other results
Oc1ccc(C=Cc2cc(O)cc(O)c2)cc1 [RSV, 3,5,4′-trihydroxystilbene] | insignificant cytotoxicity | elevated cell viabilities | – | – | – | – | bioavailability [1]: 29.8%; half-life [1]: 1.48 h; crossing of the blood–brain barrier [3, 10]: could cross the blood–brain barrier; safety and tolerance [3, 10]: safe and had good tolerance with adverse effects of nausea, diarrhea, and weight loss; Aβ42 and Aβ40 levels in the cerebrospinal fluid [3]: reduced; AUC0–8h in plasma, intact compound ([4]; co-administration of PIC and RSV, each at 180 μmol/kg): 4.1 µmol·h/L; AUC0–8h in plasma, intact compound ([4]; intragastric, 90 μmol/kg): 2.0 µmol·h/L; AUC0–8h in plasma, intact compound ([4]; intragastric, 180 μmol/kg): 4.7 µmol·h/L; AUC0–8h in plasma, intact compound ([4]; intragastric, 360 μmol/kg): 8.6 µmol·h/L
Cc1c(C)c2c(c(C)c1O)CCC(C)(C(=O)O)O2 (stereo not shown) [Trolox, 6-hydroxy-2,5,7,8-tetramethylchroman-2-carboxylic acid, reference compound] | – | – | 83.1 µM | – | – | – | –
COc1cc2c(cc1OC)C(=O)C(CC1CCN(Cc3ccccc3)CC1)C2 (stereo not shown) [donepezil, reference compound] | – | – | – | – | – | – | step-through latency, acquisition trial (first day) [7]: no significant difference among the groups; step-through latency, retention trial (second day) ([7]; vs control p < 0.05): longer staying time
Oc1cc(O)cc(C=Cc2c(O)cccc2O)c1 [GNT, 3,5,2′,6′-tetrahydroxystilbene] | insignificant cytotoxicity | elevated cell viabilities | 97 µM | 276 µM | 1760 nM | not PIC nor GNT; also recorded: not PIC and GNT | viability at 10 µM [9]: 80%
COc1ccc(/C=C/c2cc(O)cc(O)c2)cc1O [RHA, 3,5,3′-trihydroxy-4′-methoxystilbene] | – | elevated cell viabilities | 57.8 µM | 322 µM | 2930 nM | stimulate neurite outgrowths; also recorded: showed stimulated activities toward neurite outgrowths; also recorded: showed stimulatory activity in neurite outgrowths | total neurite lengths in living SH-SY5Y cells, fold of the control (SH-SY5Y cells [8]; calculated): 1.375 fold; viability at 10 µM ([9]; SH-SY5Y neuroblastoma cells): 80%
